# Reference: US20220348590A1, “CYCLOOXYGENASE-2 INHIBITORS AND USES THEREOF” (The Board Institute, Inc., priority 2019, published 2022)
# “Also recorded” adds a separate entry of the source.
# Assays:
# [1] = in-vitro protein binding: free fraction / fraction unbound, matrix and species not given; type: in vitro ADME; conditions: compared to MC1; comparator not always stated
# Protocol: (§1) We have adapted a previously reported cyclooxygenase enzymatic assay utilizing LCMS quantification of PGE2 as the product of COX-1 and COX2 catalyzed conversion of arachidonic acid to evaluate the binding properties of newly synthesized ligands [Cao, 2011]. These optimized and miniaturized (384-well plates) LCMS-based COX-1 and COX2 enzymatic assays enabled us to quickly evaluate newly synthesized ligands for COX2 binding affinity and selectivity vs COX-1. Using a shorter ligand-enzyme incubation time in the LCMS assay (2 minutes vs 10 minutes) also permitted us to prioritize ligands with faster binding kinetics. Considering the relatively slow on-rate kinetics of known coxibs, due to their 3-step binding mechanism [Marnett, 2009], we believe that optimizing this critical parameter will be key to the successful development of a COX2 PET tracer. Using these enzymatic assays, we have evaluated>200 newly synthesized ligands against COX2 and >20 ligands against COX-1. Another critical property necessary for a good PET radiotracer is to have low non-specific binding (NSB) to increase the free fraction and maximize the signal to noise ratio. This property can be evaluated using in-vitro protein binding assays, and we have now evaluated>50 newly synthesized ligands in mouse, rat and human plasma protein binding (PPB) assays as well as >15 ligands in a mouse brain protein binding (BPB) assay.
# [2] = Mouse Microsome Stability; type: in vitro ADME; conditions: mouse microsomes
# [3] = target: T1, human recombinant COX2 (hCOX2) (UniProt P35354); assay: LCMS-based COX2 enzymatic inhibition assay (PGE2 quantification); type: biochemical; parameters: improvement in potency; other: COX2 potency relative to MC1 / earlier ligand; comparator not always stated; other: vs MC1 (MC-1)
# T1 sequence (P35354 1-604): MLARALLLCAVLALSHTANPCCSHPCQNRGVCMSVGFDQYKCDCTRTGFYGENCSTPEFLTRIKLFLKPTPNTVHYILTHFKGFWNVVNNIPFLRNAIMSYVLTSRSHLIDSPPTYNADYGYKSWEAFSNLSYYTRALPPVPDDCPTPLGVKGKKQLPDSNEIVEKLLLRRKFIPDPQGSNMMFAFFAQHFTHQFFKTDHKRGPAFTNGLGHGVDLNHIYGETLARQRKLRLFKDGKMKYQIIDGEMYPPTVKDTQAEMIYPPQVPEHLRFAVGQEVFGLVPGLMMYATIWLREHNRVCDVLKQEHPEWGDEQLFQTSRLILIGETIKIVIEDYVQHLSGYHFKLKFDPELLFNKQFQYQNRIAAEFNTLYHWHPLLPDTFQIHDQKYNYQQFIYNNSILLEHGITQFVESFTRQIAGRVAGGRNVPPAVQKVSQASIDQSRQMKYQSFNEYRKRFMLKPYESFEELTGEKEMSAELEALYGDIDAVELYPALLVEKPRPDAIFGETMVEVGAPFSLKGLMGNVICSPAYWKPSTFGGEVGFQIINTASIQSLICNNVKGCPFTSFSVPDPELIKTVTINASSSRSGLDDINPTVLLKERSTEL
# Protocol: as §1
# Ovine COX-1 (oCOX-1), ovine COX2 (oCOX2), human recombinant COX2 (hCOX2), arachidonic acid, PGE2, d4-PGD2, and […] (labeled with deuterium atoms at positions 3 and 4) were purchased from Cayman Chemicals (Ann Arbor, Mich.). The cofactors (−)epinephrine and hematin, and the COX inhibitors indomethacin, resveratrol and diclofenac were purchased from Sigma-Aldrich (St. Louis, Mo.). Celecoxib was purchased from 3B PharmaChem International (Wuhan, China). All organic solvents were HPLC grade or better and were purchased from Thermo Fisher (Hanover Park, Ill.). Formic acid was purchased from EMD Chemicals (San Diego, Calif.). Purified water was prepared by using a Millipore Milli-Q purification system (Millipore, Billerica, Mass.). All other chemicals and solvents were ACS reagent grade, unless stated otherwise.
# In an Eppendorf tube, 146 μL of 100 mM Tris.HCl (pH 8.0) buffer, 2 μL of 100 μM hematin (co-factor) and 10 μL of 40 mM L-epinephrine (co-factor) were mixed at room temperature. […]
# The concentration of PGE2 in each sample was measured using LC-MS-MS, and the percent of COX inhibition by each test solution was determined by comparing the amount of PGE2 produced in the experiment with that produced in the negative control incubation. The formation of PGD2 was measured for quality control purposes, since the levels of PGD2 should be proportional to those of PGE2. […]
improvement in free fraction (fraction unbound) [1] [fold],"improvement in potency ([3]; COX2 potency relative to MC1 / earlier ligand, comparator not always stated) [fold]",Structure (SMILES),Mouse Microsome Stability % Remaining Avg [2] [%],potency / binding affinity compared to MC1 ([3]; vs MC1 (MC-1))
~4,–,CS(=O)(=O)c1ccc(-c2cccc(NCc3ccco3)n2)cc1 [Compound 36],–,–
–,–,COc1ncc(NCc2cccs2)nc1-c1ccc(S(C)(=O)=O)cc1 [Compound 29],4.3,–
~4,~4,"CS(=O)(=O)c1ccc(-c2cccc(NCc3ccoc3)n2)cc1 [Compound 47, N-(furan-3-ylmethyl)-6-(4-(methylsulfonyl)phenyl)pyridin-2-amine]",–,–
3,–,CS(=O)(=O)c1ccc(-c2cncc(NCc3cccs3)n2)cc1 [Compound 98],3,maintaining potency; also recorded: equivalent binding affinity
